According to patent publication US8063221B2, “Aminoquinolones as GSK-3 inhibitors” (Kyorin Pharmaceutical Co., Ltd., priority 2006, dated 2011):
Values after ≈ are worked out from the molar mass of the structure shown. Where two headings read alike, the source gives them in different places.

Assays:
E. coli, ATCC8739 = assay: Antibacterial activity (MIC), E. coli; assay type: cell-based; details: Escherichia coli, E. coli ATCC8739
Description: (§1) As used herein, a minimum inhibitory concentration (MIC) for bacterial growth assay is the lowest level of a compound needed to cause an inhibition to bacterial growth in culture medium. In certain embodiments, the antibacterial activity of compounds herein, measured as MIC.
(§2) In certain embodiments, GSK3 inhibitors provided herein are substantially free of antibacterial activity or having very low antibacterial activity. The antibacterial activity can be measured by methods known in the art by estimating a minimum inhibitory concentration (MIC) for test compounds. A MIC is the lowest level of a compound needed to cause an inhibition to bacterial growth in a culture medium. […] (Clinical and Laboratory Standards Institute. Methods for Dilution Antimicrobial Susceptibility Tests for Bacteria That Grow Aerobically; Approved Standard-Sixth Edition: CLSI document […]. CLSI, Wayne, Pa. (2003))
(§3) Antibacterial activity for E. coli, ATCC8739 andS. aureus Smith expressed as MIC (μM) is provided as follows: […]

S. aureus Smith = assay: Antibacterial activity (MIC), S. aureus; assay type: cell-based; details: Staphylococcus aureus
Description: as §1, §2, §3

[1] = target: T1, recombinant full-length human GSK3β (Homo sapiens, UniProt P49841); assay: Luciferase-coupled cell-free GSK3β kinase assay; assay type: biochemical
T1 construct: recombinant full-length human GSK3β (Upstate); purchased Upstate
Method: For compounds in Tables 1 and 2, IC50 (μM) for GSK3β enzyme in cell free assay is provided as follows:
Luciferase-Coupled Protein Kinase Assays
All coupled-luciferase assays are performed by using a brief incubation with firefly luciferase (Promega) after completion of the kinase assay. KinaseGlo Plus is used for reading kinase reactions with ATP>10 μM, KinaseGlo for ATP <10 μM. The assay volume in a 384-well plate for the kinase reaction is 30 microliters.
10-25 ng of recombinant full-length human GSK3β (Upstate) is incubated in the presence or absence of compound at varying concentrations for 1 hour at 30 degrees Celsius in 20 mM MOPS, pH 7.0, 10 mM magnesium acetate, 0.2 mM EDTA, 2 mM EGTA, 30 mM magnesium chloride, 62.5 μM phospho-glycogen synthase peptide-2, 5 μM ATP, 10 mM β-glycerol phosphate, 1 mM sodium orthovanadate and 1 mM dithiothreitol. Proceed to KinaseGlo luciferase reaction (see below).
Following the completion of the kinase reaction an equal volume of KinaseGlo or KinaseGlo Plus luciferase reagent (Promega) is added and the luminescence read using a luminescence plate reader within 5-10 minutes. Compound activity is expressed as % inhibition relative to maximal inhibition observed at the maximal dose and IC50 values then calculated using curve fitting software (GraphPad Prizm).

[2] = ATCC8739, Table 2, read-out: Antimicrobial MIC [μM] E. Coli
[3] = Table 2, S. aureus Smith, read-out: Antimicrobial MIC [μM] S. aureus

T1 sequence (P49841 whole entry): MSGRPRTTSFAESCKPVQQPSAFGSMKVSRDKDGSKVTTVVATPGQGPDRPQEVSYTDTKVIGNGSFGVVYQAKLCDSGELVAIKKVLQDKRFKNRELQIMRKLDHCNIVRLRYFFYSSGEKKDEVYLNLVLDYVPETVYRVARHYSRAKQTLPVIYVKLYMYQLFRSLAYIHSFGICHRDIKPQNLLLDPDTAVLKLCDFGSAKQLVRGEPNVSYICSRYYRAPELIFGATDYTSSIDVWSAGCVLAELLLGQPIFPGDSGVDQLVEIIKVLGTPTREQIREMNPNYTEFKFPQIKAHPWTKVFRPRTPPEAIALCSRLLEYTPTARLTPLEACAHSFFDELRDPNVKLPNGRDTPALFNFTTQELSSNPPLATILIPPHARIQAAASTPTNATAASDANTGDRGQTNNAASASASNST

Row | MIC (E. coli, ATCC8739; [2]) [µM] | MIC (S. aureus Smith; [3]) [µM] | IC50 ([1]; Table 2) [nM] | MIC (E. coli, ATCC8739; ATCC8739, Table 1, read-out: Antibacterial MIC (μM) E.Coli) [µM] | MIC (S. aureus Smith; Table 1, read-out: Antibacterial MIC (μM) S. aureus Smith) [µM] | IC50 ([1]; Table 1) [nM] | Compound
1 | < 0.5 | < 0.5 | < 100 |  |  |  | Nc1c(F)c(NCCNc2ccccn2)c2c3c1c(=O)c(C(=O)O)cn3[C@@H](CF)CO2 [Example 134]
2 | 10 to 50 (≈ 4.41 to 22.1 µg/mL) | 10 to 50 (≈ 4.41 to 22.1 µg/mL) | < 100 |  |  |  | Nc1c(F)c(NCCNc2ccccn2)cc2c1c(=O)c(C(=O)O)cn2C1CCOCC1 [Example 135]
3 | > 50 | > 50 | > 1000 |  |  |  | Nc1c(F)c(NCCNc2ccccn2)c(F)c2c1c(=O)cc(C(=O)O)n2C1CC1 [Example 136]
4 | > 50 | > 50 | < 100 |  |  |  | COc1c(NCCNc2ccc(C(=O)O)cn2)c(F)c(N)c2c(=O)ccn(C3CC3)c12 [Example 137]
5 | > 50 | > 50 | < 100 |  |  |  | COc1c(NCCNc2ccc(C(=O)O)cn2)c(F)c(N)c2c(=O)c(C(=O)O)cn(C3CC3)c12 [Example 138]
6 | > 50 | > 50 | 500 to 1000 |  |  |  | NC1=C2C(=O)C(C(=O)O)=CN3CCCCOC(C(NCCNc4ccccn4)=C1F)C23 (centres unmarked) [Example 140]
7 | 0.5 to 10 (≈ 0.252 to 5.04 µg/mL) | 0.5 to 10 (≈ 0.252 to 5.04 µg/mL) | < 100 |  |  |  | COc1c(NCCNc2ccccn2)c(F)c(NC(=O)C(F)(F)F)c2c(=O)c(C#N)cn(C3CC3)c12 [Example 141]
8 | > 50 | > 50 | < 100 |  |  |  | COc1c(NCCNc2ccccn2)c(F)c(N)c2c(=O)c(C#N)cn(C3CC3)c12 [Example 142]
9 | 10 to 50 (≈ 3.81 to 19.1 µg/mL) | 10 to 50 (≈ 3.81 to 19.1 µg/mL) | 100 to 500 |  |  |  | COc1c(NCCCc2ccccc2)c(F)c(N)c2c(=O)ccn(C3CC3)c12 [compound 1]
10 |  |  |  | 0.5 to 10 (≈ 0.2 to 3.99 µg/mL) | < 0.5 | 100 to 500 | Nc1c(F)c(NCCc2ccccc2)c(F)c2c1c(=O)c(C(=O)O)cn2C1CC1 [compound 1]

The next lines start with the molecule.

Row | Compound | MIC (E. coli, ATCC8739; [2]) [µM] | MIC (S. aureus Smith; [3]) [µM] | IC50 ([1]; Table 2) [nM] | MIC (E. coli, ATCC8739; ATCC8739, Table 1, read-out: Antibacterial MIC (μM) E.Coli) [µM] | MIC (S. aureus Smith; Table 1, read-out: Antibacterial MIC (μM) S. aureus Smith) [µM] | IC50 ([1]; Table 1) [nM]
11 | C[C@H]1COc2c(NCCCC3CCCCC3)c(F)c(N)c3c(=O)c(C(=O)O)cn1c23 [Example 103] | 10 to 50 (≈ 4.17 to 20.9 µg/mL) | 10 to 50 (≈ 4.17 to 20.9 µg/mL) | < 100 |  |  | 
12 | Nc1c(F)c(NCCNc2ccccn2)c2c3c1c(=O)c(C(=O)O)cn3[C@@H](Cc1ccccc1)CO2 [Example 120] | 10 to 50 (≈ 4.9 to 24.5 µg/mL) | 10 to 50 (≈ 4.9 to 24.5 µg/mL) | 100 to 500 |  |  | 
13 | COc1c(NCCNc2ccccn2)c(Cl)c(N)c2c(=O)c(C(=O)O)cn(C3CC3)c12 [Example 121] | 10 to 50 (≈ 4.44 to 22.2 µg/mL) | 0.5 to 10 (≈ 0.222 to 4.44 µg/mL) | < 100 |  |  | 
14 | CCOC(=O)CCNc1c(F)c(N)c2c(=O)c(C(=O)O)cn(C3CC3)c2c1OC [Example 122] | 10 to 50 (≈ 4.07 to 20.4 µg/mL) | 0.5 to 10 (≈ 0.204 to 4.07 µg/mL) | 500 to 1000 |  |  | 
15 | COc1c(NCCNc2ccccn2)c(F)c(N)c2c(=O)c(C(=O)O)c(C)n(C3CC3)c12 [Example 123] | > 50 | > 50 | < 100 |  |  | 
16 | Nc1c(F)c(NCCNc2ccccn2)c2c3c1c(=O)c(C(=O)O)cn3[C@@H](c1ccccc1)CO2 [Example 124] | 10 to 50 (≈ 4.75 to 23.8 µg/mL) | 10 to 50 (≈ 4.75 to 23.8 µg/mL) | 100 to 500 |  |  | 
17 | CCOC(=O)CCNc1c(F)c(N)c2c(=O)ccn(C3CC3)c2c1OC [Example 125] | > 50 | > 50 | 100 to 500 |  |  | 
18 | Nc1c(F)c(NC(=O)CCc2ccccc2)c(F)c2c1c(=O)c(C(=O)O)cn2C1CC1 [Example 126] | 0.5 to 10 (≈ 0.214 to 4.27 µg/mL) | 0.5 to 10 (≈ 0.214 to 4.27 µg/mL) | > 1000 |  |  | 
19 | Cc1c(C(=O)O)c(=O)c2c(N)c(F)c(NCCNc3ccccn3)c(OC(C)C)c2n1C1CC1 [Example 127] | 10 to 50 (≈ 4.7 to 23.5 µg/mL) | 0.5 to 10 (≈ 0.235 to 4.7 µg/mL) | 100 to 500 |  |  | 
20 | CSc1c(F)c(NCCNc2ccccn2)c(F)c2c1c(=O)c(C(=O)O)cn2C1CC1 [Example 128] | 0.5 to 10 (≈ 0.223 to 4.46 µg/mL) | 0.5 to 10 (≈ 0.223 to 4.46 µg/mL) |  |  |  | 
21 | COc1c(NCCNc2ccccn2)c(F)c(N)c2c(=O)c(C(=O)O)cn(C)c12 [Example 129] | 10 to 50 (≈ 4.01 to 20.1 µg/mL) | 10 to 50 (≈ 4.01 to 20.1 µg/mL) | 100 to 500 |  |  | 
22 | COc1c(NCCNc2ccccn2)c(F)c(N)c2c(=O)c(C(=O)O)cn(Cc3ccccc3)c12 [Example 130] | 0.5 to 10 (≈ 0.239 to 4.77 µg/mL) | 0.5 to 10 (≈ 0.239 to 4.77 µg/mL) | > 1000 |  |  | 
23 | O=C(O)c1cn(C2CC2)c2c(F)c(NCCNc3ccccn3)c(F)c(S)c2c1=O [Example 131] | 0.5 to 10 (≈ 0.216 to 4.32 µg/mL) | 0.5 to 10 (≈ 0.216 to 4.32 µg/mL) | < 100 |  |  | 
24 | COc1c(OCCNc2ccccn2)c(F)c(N)c2c(=O)c(C(=O)O)cn(C3CC3)c12 [Example 132] | 0.5 to 10 (≈ 0.214 to 4.28 µg/mL) | < 0.5 | > 1000 |  |  | 
25 | Nc1c(F)c(NCCNc2ccccn2)cc2c1c(=O)c(C(=O)O)cn2C1CC1 [Example 133] | 0.5 to 10 (≈ 0.199 to 3.97 µg/mL) | < 0.5 | < 100 |  |  | 
